Here are results for 2 compounds from patent US12685781B2, “Anti-HER3 antibody-drug conjugate” (DAIICHI SANKYO COMPANY, LIMITED, priority 2014, dated 2026).

Data set [1] in a line: Stability of released drug derivative. Type of data set: physicochemical. The following applies: self-degradation to release HO—CH2—C(═O)—(NH-DX). The source says:
Meanwhile, in case of NH2—CH2—O—CH2—C(═O)—(NH-DX), it was confirmed that, as the aminal structure in the molecule is unstable, it again undergoes a self-degradation to release the following HO—CH2—C(═O)—(NH-DX). Those compounds can be also preferably used as a production intermediate of the antibody-drug conjugate of the present invention.

The target of the next data set is T1, topoisomerase I (Homo sapiens, UniProt P11387).
T1 sequence (P11387 1-765): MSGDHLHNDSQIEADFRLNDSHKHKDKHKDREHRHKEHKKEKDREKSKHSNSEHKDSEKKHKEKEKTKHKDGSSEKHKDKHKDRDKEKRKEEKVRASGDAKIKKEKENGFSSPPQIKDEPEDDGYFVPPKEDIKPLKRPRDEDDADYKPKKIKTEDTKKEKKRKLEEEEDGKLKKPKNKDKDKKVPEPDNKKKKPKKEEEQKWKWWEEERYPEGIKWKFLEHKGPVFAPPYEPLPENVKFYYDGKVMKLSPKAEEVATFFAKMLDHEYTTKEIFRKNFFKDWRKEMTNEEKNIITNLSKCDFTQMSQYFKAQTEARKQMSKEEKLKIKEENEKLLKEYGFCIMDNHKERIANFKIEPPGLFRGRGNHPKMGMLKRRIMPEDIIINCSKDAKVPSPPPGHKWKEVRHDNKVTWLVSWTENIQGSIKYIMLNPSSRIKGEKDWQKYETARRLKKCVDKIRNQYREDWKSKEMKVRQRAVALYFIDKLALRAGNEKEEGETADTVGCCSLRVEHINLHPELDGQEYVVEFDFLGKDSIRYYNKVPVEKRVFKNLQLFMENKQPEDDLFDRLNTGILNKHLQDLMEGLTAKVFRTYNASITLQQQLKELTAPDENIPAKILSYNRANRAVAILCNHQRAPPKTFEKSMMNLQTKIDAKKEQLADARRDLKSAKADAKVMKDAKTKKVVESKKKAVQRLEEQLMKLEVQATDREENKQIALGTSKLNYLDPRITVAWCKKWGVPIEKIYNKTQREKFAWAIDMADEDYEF
To be noted: cited from earlier work.

For another data set, the system named is various cancer cells. To be noted: cited from earlier work.
In a further data set the test system is human tumor. To be noted: human tumor subcutaneously transplanted; cited from earlier work.

Take `CC[C@@]1(O)C(=O)OCc2c1cc1n(c2=O)Cc2c-1nc1cc(F)c(C)c3c1c2[C@@H](NC(=O)COCN)CC3` [NH2—CH2—O—CH2—C(═O)—(NH-DX)]: the “stability of the aminal structure in the molecule” value in data set [1] is reported as “unstable”.

In the case of `CC[C@@]1(O)C(=O)OCc2c1cc1n(c2=O)Cc2c-1nc1cc(F)c(C)c3c1c2[C@@H](N)CC3` [exatecan, (1S,9S)-1-amino-9-ethyl-5-fluoro-2,3-dihydro-9-hydroxy-4-methyl-1H,12H-benzo[de]pyrano[3′,4′:6,7]indolizino[1,2-b]quinolin-10,13(9H,15H)-dione], the “inhibitory activity on topoisomerase I compared to SN-38 and topotecan” value at topoisomerase I is given as “higher inhibitory activity”. For the same compound, in the data set on various cancer cells, the “cytocidal activity in vitro compared to SN-38 and topotecan” value is recorded as “higher cytocidal activity”. For the same compound, the antitumor effect result in the data set on human tumor was “potent antitumor effect”.
